Laboratory results taken from the NIST ThermoML archive (doi:10.1021/je060271a).
Numbers after ± are expanded uncertainties.

Details: 343.15 K, Liquid, Vibrating tube method

CCCCCCC(=O)OCC(COC(=O)CCCCCC)(COC(=O)CCCCCC)COC(=O)CCCCCC [pentaerythritol tetraheptanoate]
Details | mass density [kg/m3]
6063.9 kPa | 945.1 ± 1.2
6075.5 kPa | 945.2 ± 1.2
6087.4 kPa | 945.2 ± 1.2
6099.2 kPa | 945.2 ± 1.2
6113 kPa | 945.2 ± 1.2
6125.1 kPa | 945.2 ± 1.2
6137.2 kPa | 945.3 ± 1.2
6149.3 kPa | 945.1 ± 1.2
6163.7 kPa | 945.3 ± 1.2
6175.6 kPa | 945.3 ± 1.2
6187.7 kPa | 945.2 ± 1.2
6199.8 kPa | 945.2 ± 1.2
6214.5 kPa | 945.3 ± 1.2
6226.9 kPa | 945.3 ± 1.2
6239.4 kPa | 945.3 ± 1.2
6253.9 kPa | 945.3 ± 1.2
6266.1 kPa | 945.3 ± 1.2
6278.6 kPa | 945.3 ± 1.2
6293.3 kPa | 945.3 ± 1.2
6306.2 kPa | 945.3 ± 1.2
6319 kPa | 945.5 ± 1.2
6332 kPa | 945.3 ± 1.2
6347 kPa | 945.4 ± 1.2
6359.8 kPa | 945.5 ± 1.2
6372.6 kPa | 945.4 ± 1.2
6385.6 kPa | 945.4 ± 1.2
6400.6 kPa | 945.4 ± 1.2
6413.9 kPa | 945.4 ± 1.2
6426.9 kPa | 945.3 ± 1.2
6442.4 kPa | 945.3 ± 1.2
6456.1 kPa | 945.4 ± 1.2
6469 kPa | 945.5 ± 1.2
6482.7 kPa | 945.4 ± 1.2
6499.1 kPa | 945.6 ± 1.2
6512.8 kPa | 945.5 ± 1.2
6525.9 kPa | 945.5 ± 1.2
6541.8 kPa | 945.6 ± 1.2
6555.1 kPa | 945.6 ± 1.2
6568.9 kPa | 945.6 ± 1.2
6585.3 kPa | 945.5 ± 1.2
6598.8 kPa | 945.5 ± 1.2
6612.5 kPa | 945.5 ± 1.2
6629.2 kPa | 945.6 ± 1.2
6643.2 kPa | 945.5 ± 1.2
6657.6 kPa | 945.7 ± 1.2
6671.9 kPa | 945.5 ± 1.2
6687.1 kPa | 945.5 ± 1.2
6704 kPa | 945.6 ± 1.2
6718.4 kPa | 945.6 ± 1.2
6732.5 kPa | 945.6 ± 1.2
6747.4 kPa | 945.7 ± 1.2
6764.3 kPa | 945.8 ± 1.2
6779.2 kPa | 945.8 ± 1.2
6793.5 kPa | 945.7 ± 1.2
6811.1 kPa | 945.6 ± 1.2
6825.8 kPa | 945.6 ± 1.2
6840.7 kPa | 945.8 ± 1.2
6855.9 kPa | 945.7 ± 1.2
6874.2 kPa | 945.8 ± 1.2
6887.1 kPa | 945.8 ± 1.2
6904.9 kPa | 945.9 ± 1.2
6920.2 kPa | 945.8 ± 1.2
6935.6 kPa | 945.8 ± 1.2
6953.6 kPa | 945.8 ± 1.2
6968.8 kPa | 945.9 ± 1.2
6984.8 kPa | 945.8 ± 1.2
7000.2 kPa | 945.7 ± 1.2
7019.2 kPa | 946 ± 1.2
7034.9 kPa | 945.7 ± 1.2
7050.8 kPa | 945.8 ± 1.2
7069.3 kPa | 945.8 ± 1.2
7085.7 kPa | 945.9 ± 1.2
7101.8 kPa | 945.9 ± 1.2
7117.8 kPa | 946 ± 1.2
7137.2 kPa | 945.9 ± 1.2
7153.2 kPa | 946 ± 1.2
7169.6 kPa | 945.9 ± 1.2
7186 kPa | 945.8 ± 1.2
7205.5 kPa | 945.9 ± 1.2
7221.8 kPa | 946 ± 1.2
7241.8 kPa | 946 ± 1.2
7258.6 kPa | 946 ± 1.2
7275.1 kPa | 945.9 ± 1.2
7292.1 kPa | 946.1 ± 1.2
7312.3 kPa | 946.1 ± 1.2
7329.7 kPa | 946.2 ± 1.2
7347 kPa | 946.1 ± 1.2
7364.6 kPa | 946.1 ± 1.2
7385.1 kPa | 946.1 ± 1.2
7402.4 kPa | 946.2 ± 1.2
7420 kPa | 946.2 ± 1.2
7437.8 kPa | 946.2 ± 1.2
7458.7 kPa | 946.2 ± 1.2
7476.1 kPa | 946.2 ± 1.2
7494.2 kPa | 946.1 ± 1.2
7515.3 kPa | 946.3 ± 1.2
7533.4 kPa | 946.1 ± 1.2
7551.9 kPa | 946.3 ± 1.2
7570.4 kPa | 946.3 ± 1.2
7592.1 kPa | 946.3 ± 1.2
7610.3 kPa | 946.4 ± 1.2
7628.9 kPa | 946.4 ± 1.2
7650.8 kPa | 946.3 ± 1.2
7669.1 kPa | 946.3 ± 1.2
7688.1 kPa | 946.3 ± 1.2
7710.2 kPa | 946.3 ± 1.2
7729.2 kPa | 946.3 ± 1.2
7748.3 kPa | 946.4 ± 1.2
7767.5 kPa | 946.4 ± 1.2
7790.8 kPa | 946.4 ± 1.2
7810.5 kPa | 946.5 ± 1.2
7830.3 kPa | 946.5 ± 1.2
